{"source": "paper PMC12216609", "about": "“Inhibitors of eIF1A-ribosome interaction unveil uORF-dependent regulation of translation initiation and antitumor and antiviral effects” (The EMBO Journal, 2025)", "key": {"RPS10": {"target": "T1, RPS10 (Homo sapiens, UniProt P46783)", "T1 construct": "made in house; host or cells: E. coli BL-21", "format": "binding"}, "eIF1A-RPS10 interaction": {"target": "T2, eIF1A-RPS10 interaction (Homo sapiens, UniProt P46783+P47813)", "T2 construct": "made in house; host or cells: E. coli BL21 (PRSFduet); unpurified lysate supernatant", "T2 sequence (P47813 whole entry, the tested form may be a part, one chain of several)": "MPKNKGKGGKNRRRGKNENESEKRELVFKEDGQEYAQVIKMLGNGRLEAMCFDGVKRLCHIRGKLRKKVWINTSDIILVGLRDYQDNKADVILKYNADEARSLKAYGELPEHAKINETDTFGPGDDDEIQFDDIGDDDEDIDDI", "assay": "Split-Renilla luciferase eIF1A-RPS10 interaction screen, dose-response", "format": "biochemical", "method_in_brief": "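Recombinant split-luciferase fusions were produced bacterially, lysed by sonication in TKE buffer and the cleared supernatants tested for Renilla activity. Compounds, held as 10 mM DMSO stocks, were then assayed for interference with the reconstituted signal, with unfused Renilla halves run as controls.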"}, "[1]": {"tested_on": "CUG/GUG vs AUG start codon luciferase reporters in HEK293T cells", "assay": "Near-cognate AUG starting codon fidelity reporter assay (GUG, CUG vs AUG)", "format": "cell-based"}, "eIF1A": {"target": "T3, eIF1A (Homo sapiens, UniProt P47813)", "T3 construct": "His-bdSUMO (cleaved yes); made in house; host or cells: E. coli BL-21", "T3 sequence (P47813 whole entry)": "as the sequence (P47813 whole entry, the tested form may be a part, one chain of several) above", "format": "binding", "settings": "for fluorescence ratio, eIF1A: background-corrected, relative to DMSO or lowest 1Ai concentration, replicate columns"}, "[2]": {"settings": "summary table, fluorescence binding assay"}}, "note": "Where “and” joins values, the source holds several entries; their conditions need not be identical. Equal entries are not always repeated. Where two headings read alike, the source gives them in different places.", "data": [{"smiles": "COc1ccc2oc(C(=O)OC(C)C(=O)Nc3sccc3C(N)=O)c(C)c2c1", "note": "(stereo not shown) [1Ai-3044]", "values": [{"measurement": "RPS10 fluorescence ratio to control", "setting": "RPS10; 1Ai conc. 0.25 uM", "result": 1}, {"measurement": "RPS10 fluorescence ratio to control", "setting": "RPS10; 1Ai conc. 0.5 uM", "result": 1.015}, {"measurement": "RPS10 fluorescence ratio to control", "setting": "RPS10; 1Ai conc. 2 uM", "result": 1.108}, {"measurement": "RPS10 fluorescence ratio to control", "setting": "RPS10; 1Ai conc. 4 uM", "result": 1.108}, {"measurement": "RPS10 fluorescence ratio to control", "setting": "RPS10; 1Ai conc. 8 uM", "result": 1.07}, {"measurement": "RPS10 fluorescence ratio to control", "setting": "RPS10; 1Ai conc. 16 uM", "result": 0.983}, {"measurement": "RPS10 fluorescence ratio to control", "setting": "RPS10; 1Ai conc. 32 uM", "result": 0.9928}, {"measurement": "RPS10 fluorescence ratio to control", "setting": "RPS10; 1Ai conc. 64 uM", "result": 1.135}, {"measurement": "RPS10 fluorescence ratio to control", "setting": "RPS10; 1Ai conc. 256 uM", "result": 1.327}, {"measurement": "RPS10 IC50", "setting": "RPS10; fluorescence binding", "result": "No binding"}, {"measurement": "IC50 concentration (µM), RPS10", "setting": "RPS10; [2]", "result": "No binding"}, {"measurement": "IC50", "setting": "eIF1A-RPS10 interaction; Appendix Table S1, read-out: IC50 from the split RL screen", "result": 15, "unit": "µM"}, {"measurement": "IC50", "setting": "eIF1A-RPS10 interaction; summary table, read-out: IC50 concentration (µM), IC50 screen", "result": 10, "unit": "µM"}, {"measurement": "CUG vs AUG (%)", "setting": "[1]; CUG start codon reporter relative to AUG reporter (AUG = 100), compound at 10uM (summary head), single-experiment calculation", "result": 8.177, "unit": "%"}, {"measurement": "GUG vs AUG (%)", "setting": "[1]; GUG start codon reporter relative to AUG reporter (AUG = 100), compound at 10uM (summary head), single-experiment calculation", "result": 1.952, "unit": "%"}, {"measurement": "average CUG and GUG", "setting": "[1]; NUG experiment", "result": 5.9112}, {"measurement": "average CUG and GUG relative to DMSO", "setting": "[1]; NUG experiment", "result": 1.3106}, {"measurement": "CUG Average", "setting": "[1]; NUG experiment, CUG vs AUG reporter", "result": 9.682}, {"measurement": "GUG Average", "setting": "[1]; NUG experiment, GUG vs AUG reporter", "result": 2.141}, {"measurement": "NUG (Final data, Fig. 1E)", "setting": "[1]; average CUG and GUG relative to DMSO, 20 µM overnight", "result": 1.311}, {"measurement": "GUG vs AUG data (%)", "setting": "[1]; compound at 10uM, individual repeat", "result": "2.24% and 1.90% and 2.01% and 2.41%"}, {"measurement": "GUG vs AUG (%) Average", "setting": "[1]; compound at 10uM, summary average of repeats, DMSO control average […]", "result": 2.14, "unit": "%"}, {"measurement": "fluorescence ratio, eIF1A", "setting": "eIF1A; 1Ai conc. 0.25 uM", "result": "0.7896 and 0.9625"}, {"measurement": "fluorescence ratio, eIF1A", "setting": "eIF1A; 1Ai conc. 0.5 uM", "result": "0.8401 and 0.9684"}, {"measurement": "fluorescence ratio, eIF1A", "setting": "eIF1A; 1Ai conc. 1 uM", "result": "0.783 and 0.965"}, {"measurement": "fluorescence ratio, eIF1A", "setting": "eIF1A; 1Ai conc. 2 uM", "result": "1.321 and 0.9132"}, {"measurement": "fluorescence ratio, eIF1A", "setting": "eIF1A; 1Ai conc. 4 uM", "result": "1.411 and 0.9093"}, {"measurement": "fluorescence ratio, eIF1A", "setting": "eIF1A; 1Ai conc. 8 uM", "result": "1.361 and 0.8279"}, {"measurement": "fluorescence ratio, eIF1A", "setting": "eIF1A; 1Ai conc. 16 uM", "result": "1.171 and 0.7406"}, {"measurement": "fluorescence ratio, eIF1A", "setting": "eIF1A; 1Ai conc. 32 uM", "result": "1.256 and 0.7959"}, {"measurement": "fluorescence ratio, eIF1A", "setting": "eIF1A; 1Ai conc. 64 uM", "result": "1.351 and 0.8195"}, {"measurement": "fluorescence ratio, eIF1A", "setting": "eIF1A; 1Ai conc. 256 uM", "result": "1.419 and 0.8072"}, {"measurement": "WT eIF1A IC50", "setting": "eIF1A; fluorescence binding", "result": "No binding"}, {"measurement": "IC50 concentration (µM), WT eIF1A", "setting": "eIF1A; [2]", "result": "No binding"}]}]}
